Earlier results, collected in PubChem BioAssay AID1259410 (Chemical Carcinogenesis Research Information System (CCRIS), 2018).

System: rodent tumor promotion studies, tumor incidence
Assay: CCRIS tumor promotion studies
[1] = Doses [Carcinogen]: IR, Route [Carcinogen]: RECTAL, Route [Promoter]: RECTAL, Species: RAT, Strain/Sex: FEMALE

SMILES: O=C1NC(=O)C(c2ccccc2)(c2ccccc2)N1
- outcome (Carcinogen: N,N-DIETHYLNITROSAMINE, 55-18-5, Doses [Carcinogen]: 75 MG/KG IN SALINE ONCE AT 5 WK OF AGE, Doses [Promoter]: 0, 500, 1500 PPM IN DIET FOR 45 WK BEGINNING 2 WK POST CARCINOGEN TREATMENT (STUDY DURATION: 47 WK), Doses [Promoter]: 0, 500, 1500 PPM IN DIET FOR 45 WK BEGINNING 2 WK POST CARCINOGEN TREATMENT (STUDY DURATION: 47 WK), Route [Carcinogen]: INTRAPERITONEAL, Route [Promoter]: ORAL, Species: RAT, Strain/Sex: F344/MALE): liver: hepatocellular adenoma
- outcome (Carcinogen: N,N-DIETHYLNITROSAMINE, 55-18-5, Doses [Carcinogen]: 75 MG/KG IN SALINE ONCE AT 5 WK OF AGE, Doses [Promoter]: 0, 500, 1500 PPM IN DIET FOR 46-72 WK BEGINNING 2 WK POST CARCINOGEN TREATMENT (STUDY DURATION: 46-72 WK), Doses [Promoter]: 0, 500, 1500 PPM IN DIET FOR 46-72 WK BEGINNING 2 WK POST CARCINOGEN TREATMENT (STUDY DURATION: 46-72 WK), Route [Carcinogen]: INTRAPERITONEAL, Route [Promoter]: ORAL, Species: RAT, Strain/Sex: F344/MALE): liver: hepatocellular adenoma
- outcome (Carcinogen: N-NITROSODIETHYLAMINE, 55-18-5, Doses [Carcinogen]: 90 MG/KG BW IN TRICAPRYLIN ONCE, Doses [Promoter]: 0, 500 PPM IN DIET FOR 53 WK BEGINNING 2 WK POST CARCINOGEN DOSE (STUDY DURATION: 55 WK), Route [Carcinogen]: INTRAPERITONEAL, Route [Promoter]: ORAL, Species: MOUSE, Strain/Sex: D2B6F1/MALE): liver: tumor

SMILES: [Cl][Zn][Cl]
- outcome (Carcinogen: URETHANE, 51-79-6, Doses [Carcinogen]: 1.5 MG/G ONCE, Doses [Promoter]: 0, 50, 200, 500 UG/ML IN DEIONIZED DRINKING WATER BEGINNING 3 WK PRIOR TO CARCINOGEN DOSE AND CONTINUING FOR 12 WK POST, Doses [Promoter]: 0, 50, 200, 500 UG/ML IN DEIONIZED DRINKING WATER BEGINNING 3 WK PRIOR TO CARCINOGEN DOSE AND CONTINUING FOR 12 WK POST, Route [Carcinogen]: INTRAPERITONEAL, Route [Promoter]: ORAL, Species: MOUSE, Strain/Sex: SWISS/FEMALE): lung: adenoma

SMILES: COC[C@@H]([C@H](O)[C@H](O)C(=O)NCC[C@H](C)c1nc(/C=C/C[C@@H]2O[C@]3(C[C@@H](O)[C@@H]2C)O[C@H]([C@H](C[C@H](O)[C@H](C)[C@H](O)[C@H](C)/C=C(C)/C(C)=C/C=C/C(C)=C\C#N)OC)[C@H](OP(=O)(O)O)C3(C)C)co1)N(C)C
- outcome (Carcinogen: 7,12-DIMETHYLBENZ[A]ANTHRACENE, 57-97-6, Doses [Carcinogen]: 100 UG IN 0.1 ML ACETONE TO THE DORSAL SKIN ONCE, Doses [Promoter]: 0, 0.1, 1 UG IN 0.1 ML ACETONE TO THE DORSAL SKIN 2/WK FOR 29 WK BEGINNING 1 WK POST CARCINOGEN DOSE (STUDY DURATION: 30, Doses [Promoter]: 0, 0.1, 1 UG IN 0.1 ML ACETONE TO THE DORSAL SKIN 2/WK FOR 29 WK BEGINNING 1 WK POST CARCINOGEN DOSE (STUDY DURATION: 30, Route [Carcinogen]: DERMAL, Route [Promoter]: DERMAL, Species: MOUSE, Strain/Sex: CD-1/FEMALE): skin: papilloma

SMILES: COC(=O)[C@H]1[C@@H](OC(=O)c2ccccc2)C[C@@H]2CC[C@H]1N2C
- outcome (Carcinogen: MURINE SARCOMA VIRUS, Doses [Promoter]: 0, 0.5 MG/KG/D FOR 3 D BEGINNING ON DAY OF VIRUS INJECTION (STUDY DURATION: 20 D), Route [Carcinogen]: INTRAMUSCULAR, Route [Promoter]: SUBCUTANEOUS, Species: MOUSE, Strain/Sex: BALB/FEMALE): injection site: tumor

SMILES: C=C1C(O)C2OC3(CCC(/C=C/C(C)C4CC(C)=CC5(OC(CC(C)(O)C(=O)O)CCC5O)O4)O3)CCC2OC1C(O)CC(C)C1OC2(CCC1C)OCCCC2C (stereo not given)
- outcome (Carcinogen: 7,12-DIMETHYLBENZ[A]ANTHRACENE, 57-97-6, Doses [Carcinogen]: 100 UG IN 0.1 ML OF ACETONE ONCE, Doses [Promoter]: 0, 5 UG IN 0.1 ML OF ACETONE 2/WK FOR 30 WK BEGINNING 1 WK POST CARCINOGEN DOSE (STUDY DURATION: 31 WK), Route [Carcinogen]: DERMAL, Route [Promoter]: DERMAL, Species: MOUSE, Strain/Sex: CD-1/FEMALE): skin: tumor

SMILES: C[C@H](CCC(=O)O)[C@H]1CC[C@H]2[C@@H]3[C@H](O)C[C@@H]4C[C@H](O)CC[C@]4(C)[C@H]3C[C@H](O)[C@]12C
- outcome (Carcinogen: AZOXYMETHANE, 25843-45-2, Doses [Carcinogen]: 15 MG/KG BW 1/WK FOR 2 WK, Doses [Promoter]: 0, 0.4% IN THE DIET FOR 28 WK BEGINNING 2 WK PRIOR TO CARCINOGEN TREATMENT (STUDY DURATION: 30 WK), Route [Carcinogen]: SUBCUTANEOUS, Route [Promoter]: ORAL, Species: RAT, Strain/Sex: F344/MALE): colon: tumor
- outcome [1]: colon

SMILES: C[C@H](CCC(=O)O)[C@H]1CC[C@H]2[C@@H]3CC[C@@H]4C[C@H](O)CC[C@]4(C)[C@H]3C[C@H](O)[C@]12C
- outcome (Carcinogen: AZOXYMETHANE, 25843-45-2, Doses [Carcinogen]: 7.4 MG/KG BW/WK FOR 5 WK, Doses [Promoter]: 0, 0.3% OF CHOW PELLETS FOR 45 WK BEGINNING FROM START OF ADMINISTRATION OF CARCINOGEN (STUDY DURATION: 45 WK), Route [Carcinogen]: SUBCUTANEOUS, Route [Promoter]: ORAL, Species: RAT, Strain/Sex: WISTAR/MALE): colon: tumor
- outcome (Carcinogen: DIETHYLNITROSAMINE, 55-18-5, 2-(ACETYLAMINO)FLUORENE, 6292-55-3, Carcinogen: DIETHYLNITROSAMINE, 55-18-5, 2-(ACETYLAMINO)FLUORENE, 6292-55-3, Doses [Carcinogen]: 200 MG/KG DEN FOLLOWED 2 WK LATER BY 0.03% 2AAF IN DIET FOR 2 WK PLUS 2 ML/KG CCL4 IN THE MIDDLE OF TREATMENT, Doses [Promoter]: 0.5% IN DIET BEGINNING 1 WK POST CARCINOGEN TREATMENT AND CONTINUING FOR DURATION OF TREATMENT (STUDY DURATION: 35 WK), Route [Carcinogen]: INTRAPERITONEAL, ORAL, Route [Promoter]: ORAL, Species: RAT, Strain/Sex: WISTAR/MALE): liver: hepatocellular carcinoma or cholangiocarcinoma
- outcome (Carcinogen: DIETHYLNITROSAMINE, 55-18-5, 2-ACETYLAMINO-FLUORENE, 53-96-3, CARBON TETRACHLORIDE, 56-23-5, Carcinogen: DIETHYLNITROSAMINE, 55-18-5, 2-ACETYLAMINO-FLUORENE, 53-96-3, CARBON TETRACHLORIDE, 56-23-5, Doses [Carcinogen]: 200 NMOL DEN ONCE FOLLOWED 2 WK LATER BY 0.03% 2AAF IN DIET PLUS 2 ML/MG CC14 IN THE MIDDLE OF 2AAF TREATMENT OF 3 WK, Doses [Promoter]: 0, 0.5% IN DIET BEGINNING POST CARCINOGEN TREATMENT AND CONTINUING FOR 30 WK (STUDY DURATION: 35 WK), Route [Carcinogen]: INTRAPERITONEAL, ORAL, Route [Carcinogen]: INTRAPERITONEAL, ORAL, Route [Promoter]: ORAL, Species: RAT, Strain/Sex: WISTAR/MALE): liver: tumor
- outcome (Carcinogen: N-METHYL-N-AMYLNITROSAMINE, 13256-07-0, Doses [Carcinogen]: 0.003% IN DRINKING WATER FOR 8 WK FOLLOWED BY TAP WATER FOR 20 WK, Doses [Promoter]: 0, 0.2% IN DIET BEGINNING POST CARCINOGEN TREATMENT AND CONTINUING FOR 20 WK (STUDY DURATION: 28 WK), Route [Carcinogen]: ORAL, Route [Promoter]: ORAL, Species: RAT, Strain/Sex: WISTAR/MALE): esophagus: papilloma
- outcome (Carcinogen: N-METHYL-N-AMYLNITROSAMINE, 13256-07-0, Doses [Carcinogen]: 0.003% IN DRINKING WATER FOR 8 WK FOLLOWED BY TAP WATER FOR 20 WK, Doses [Promoter]: 0, 0.2% IN DIET FOR 8 WK SIMULTANEOUSLY WITH CARCINOGEN TREATMENT (STUDY DURATION: 28 WK), Route [Carcinogen]: ORAL, Route [Promoter]: ORAL, Species: RAT, Strain/Sex: WISTAR/MALE): esophagus: papilloma
- outcome (Carcinogen: N-METHYL-N-AMYLNITROSAMINE, 13256-07-0, Doses [Carcinogen]: 0.003% IN DRINKING WATER FOR 8 WK FOLLOWED BY TAP WATER FOR 20 WK, Doses [Promoter]: 0, 0.2% IN DIET FOR DURATION OF STUDY (STUDY DURATION: 28 WK), Route [Carcinogen]: ORAL, Route [Promoter]: ORAL, Species: RAT, Strain/Sex: WISTAR/MALE): esophagus: carcinoma, papilloma
- outcome [1]: colon

SMILES: NC(Cc1c[nH]c2ccccc12)C(=O)O (stereo not given)
- outcome (Carcinogen: 2-NAPHTHYLAMINE, Doses [Carcinogen]: DIET, Doses [Promoter]: IN DIET, Route [Carcinogen]: ORAL, Route [Promoter]: ORAL, Species: DOG, Strain/Sex: FEMALE): urinary bladder
- outcome (Carcinogen: N-(4-(5-NITRO-2-FURYL)-2-THIAZOLYL)FORMAMIDE, Doses [Carcinogen]: DIET, Doses [Promoter]: IN DIET, Route [Carcinogen]: ORAL, Route [Promoter]: ORAL, Species: RAT, Strain/Sex: F344/MALE): urinary bladder: papilloma, carcinoma

SMILES: C=C[C@@]1(C)CC[C@](C)(C(C)C)c2cc3c4c(c[nH]c4c21)C[C@@H](CO)NC(=O)[C@H](C(C)C)N3C
- outcome (Carcinogen: 7,12-DIMETHYLBENZ[A]ANTHRACENE, 57-97-6, Doses [Carcinogen]: 100 UG ONCE, Doses [Promoter]: 0, 5.5 NMOL 2/WK FOR 19 WK BEGINNING 1 WK POST CARCINOGEN DOSE (STUDY DURATION: 20 WK), Route [Carcinogen]: DERMAL, Route [Promoter]: DERMAL, Species: MOUSE, Strain/Sex: CD-1/FEMALE): skin: tumor
- outcome (Carcinogen: 7,12-DIMETHYLBENZ[A]ANTHRACENE, Doses [Carcinogen]: 100 UG ONCE, Doses [Promoter]: 2.5 UG IN ACETONE 2/WK FOR 30 WK, Route [Carcinogen]: DERMAL, Route [Promoter]: DERMAL, Species: MOUSE, Strain/Sex: CD-1/FEMALE): integumentary system (skin): papilloma, carcinoma
